Assay results from publication PMC7385619, “A triple action CDK4/6-PI3K-BET inhibitor with augmented cancer cell cytotoxicity” (Cell Discovery, 2020).
Read-outs that look alike come from different tables or passages of the source.

Experiments:
Experiment in all cases: KINOMEscan assay (Eurofins DiscoverX)
Format in all cases: binding
kinome (kinase panel) [1] = molecular target: T1, kinome (kinase panel) (Homo sapiens, UniProt P48736); conditions: PIK3CG; 1000 nM; read-out: Percent Control
T1 construct: purchased Eurofins DiscoverX

kinome (kinase panel) [2] = molecular target: T2, kinome (kinase panel) (Homo sapiens, UniProt O94921); conditions: PFTK1 (Entrez CDK14); 1000 nM; read-out: Percent Control
T2 construct: purchased Eurofins DiscoverX

kinome (kinase panel) [3] = molecular target: T3, kinome (kinase panel) (Homo sapiens, UniProt Q9UBE8); conditions: NLK; 1000 nM; read-out: Percent Control
T3 construct: purchased Eurofins DiscoverX

kinome (kinase panel) [4] = molecular target: T4, kinome (kinase panel) (Homo sapiens, UniProt P23458); conditions: 1000 nM, read-out: Percent Control
T4 construct: purchased Eurofins DiscoverX
T4 sequence (P23458 whole entry): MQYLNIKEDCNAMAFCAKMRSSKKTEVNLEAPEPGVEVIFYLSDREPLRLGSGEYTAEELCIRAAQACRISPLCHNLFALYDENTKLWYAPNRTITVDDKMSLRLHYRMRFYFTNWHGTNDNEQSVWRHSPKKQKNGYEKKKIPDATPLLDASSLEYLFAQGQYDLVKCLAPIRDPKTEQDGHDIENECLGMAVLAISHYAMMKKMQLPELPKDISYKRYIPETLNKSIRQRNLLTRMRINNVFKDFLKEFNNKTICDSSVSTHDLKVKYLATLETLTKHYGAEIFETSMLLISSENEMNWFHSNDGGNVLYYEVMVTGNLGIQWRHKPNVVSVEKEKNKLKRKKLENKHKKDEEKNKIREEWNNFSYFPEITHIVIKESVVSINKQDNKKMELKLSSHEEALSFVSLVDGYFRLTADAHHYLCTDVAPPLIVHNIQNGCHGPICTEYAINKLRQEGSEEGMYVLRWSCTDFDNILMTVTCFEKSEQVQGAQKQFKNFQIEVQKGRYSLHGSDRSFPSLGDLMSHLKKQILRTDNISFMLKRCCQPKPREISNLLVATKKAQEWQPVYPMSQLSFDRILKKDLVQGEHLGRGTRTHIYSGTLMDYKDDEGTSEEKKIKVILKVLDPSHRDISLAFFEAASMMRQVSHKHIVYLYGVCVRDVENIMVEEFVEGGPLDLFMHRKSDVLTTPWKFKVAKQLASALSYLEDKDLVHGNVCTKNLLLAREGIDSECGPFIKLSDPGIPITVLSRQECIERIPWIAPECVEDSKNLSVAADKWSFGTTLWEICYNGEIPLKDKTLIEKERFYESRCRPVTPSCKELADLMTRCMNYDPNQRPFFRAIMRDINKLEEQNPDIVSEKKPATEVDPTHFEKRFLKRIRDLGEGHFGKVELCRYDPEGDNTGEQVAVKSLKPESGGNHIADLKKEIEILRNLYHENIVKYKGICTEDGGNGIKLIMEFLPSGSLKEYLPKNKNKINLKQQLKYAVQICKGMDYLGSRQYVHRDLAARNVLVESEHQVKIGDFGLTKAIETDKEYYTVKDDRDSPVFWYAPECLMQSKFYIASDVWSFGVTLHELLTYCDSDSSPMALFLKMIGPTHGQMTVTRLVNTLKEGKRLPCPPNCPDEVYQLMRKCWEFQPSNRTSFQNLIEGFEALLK

kinome (kinase panel) [5] = molecular target: T5, kinome (kinase panel) (Homo sapiens, UniProt P29323); conditions: EPHB2; 1000 nM; read-out: Percent Control
T5 construct: purchased Eurofins DiscoverX

kinome (kinase panel) [6] = molecular target: T6, kinome (kinase panel) (Homo sapiens, UniProt Q6ZN16); conditions: MAP3K15; 1000 nM; read-out: Percent Control
T6 construct: purchased Eurofins DiscoverX

kinome (kinase panel) [7] = molecular target: T7, kinome (kinase panel) (Homo sapiens, UniProt Q9BYP7); conditions: WNK3; 1000 nM; read-out: Percent Control
T7 construct: purchased Eurofins DiscoverX

kinome (kinase panel) [8] = molecular target: T8, kinome (kinase panel) (Homo sapiens, UniProt P32298); conditions: GRK4; 1000 nM; read-out: Percent Control
T8 construct: purchased Eurofins DiscoverX

kinome (kinase panel) [9] = molecular target: T9, kinome (kinase panel) (Homo sapiens, UniProt Q9UM73, C1156Y); conditions: […]; 1000 nM; read-out: Percent Control
T9 construct: purchased Eurofins DiscoverX

kinome (kinase panel) [10] = molecular target: T10, kinome (kinase panel) (Homo sapiens, UniProt P80192); conditions: MLK1 (Entrez MAP3K9); 1000 nM; read-out: Percent Control
T10 construct: purchased Eurofins DiscoverX

kinome (kinase panel) [11] = molecular target: T11, kinome (kinase panel) (Homo sapiens, UniProt P29376); conditions: LTK; 1000 nM; read-out: Percent Control
T11 construct: purchased Eurofins DiscoverX

kinome (kinase panel) [12] = molecular target: T12, kinome (kinase panel) (Homo sapiens, UniProt Q15759); conditions: p38-beta (Entrez MAPK11); 1000 nM; read-out: Percent Control
T12 construct: purchased Eurofins DiscoverX

kinome (kinase panel) [13] = molecular target: T13, kinome (kinase panel) (Homo sapiens, UniProt O96013); conditions: PAK4; 1000 nM; read-out: Percent Control
T13 construct: purchased Eurofins DiscoverX

kinome (kinase panel) [14] = molecular target: T14, kinome (kinase panel) (Homo sapiens, UniProt P42684); conditions: ABL2; 1000 nM; read-out: Percent Control
T14 construct: purchased Eurofins DiscoverX

kinome (kinase panel) [15] = molecular target: T15, kinome (kinase panel) (Homo sapiens, UniProt P07949, V804M); conditions: read-out: Percent Control
T15 construct: purchased Eurofins DiscoverX

kinome (kinase panel) [16] = molecular target: T16, kinome (kinase panel) (Homo sapiens, UniProt P08581); conditions: MET; 1000 nM; read-out: Percent Control
T16 construct: purchased Eurofins DiscoverX
T16 sequence (P08581 25-1390): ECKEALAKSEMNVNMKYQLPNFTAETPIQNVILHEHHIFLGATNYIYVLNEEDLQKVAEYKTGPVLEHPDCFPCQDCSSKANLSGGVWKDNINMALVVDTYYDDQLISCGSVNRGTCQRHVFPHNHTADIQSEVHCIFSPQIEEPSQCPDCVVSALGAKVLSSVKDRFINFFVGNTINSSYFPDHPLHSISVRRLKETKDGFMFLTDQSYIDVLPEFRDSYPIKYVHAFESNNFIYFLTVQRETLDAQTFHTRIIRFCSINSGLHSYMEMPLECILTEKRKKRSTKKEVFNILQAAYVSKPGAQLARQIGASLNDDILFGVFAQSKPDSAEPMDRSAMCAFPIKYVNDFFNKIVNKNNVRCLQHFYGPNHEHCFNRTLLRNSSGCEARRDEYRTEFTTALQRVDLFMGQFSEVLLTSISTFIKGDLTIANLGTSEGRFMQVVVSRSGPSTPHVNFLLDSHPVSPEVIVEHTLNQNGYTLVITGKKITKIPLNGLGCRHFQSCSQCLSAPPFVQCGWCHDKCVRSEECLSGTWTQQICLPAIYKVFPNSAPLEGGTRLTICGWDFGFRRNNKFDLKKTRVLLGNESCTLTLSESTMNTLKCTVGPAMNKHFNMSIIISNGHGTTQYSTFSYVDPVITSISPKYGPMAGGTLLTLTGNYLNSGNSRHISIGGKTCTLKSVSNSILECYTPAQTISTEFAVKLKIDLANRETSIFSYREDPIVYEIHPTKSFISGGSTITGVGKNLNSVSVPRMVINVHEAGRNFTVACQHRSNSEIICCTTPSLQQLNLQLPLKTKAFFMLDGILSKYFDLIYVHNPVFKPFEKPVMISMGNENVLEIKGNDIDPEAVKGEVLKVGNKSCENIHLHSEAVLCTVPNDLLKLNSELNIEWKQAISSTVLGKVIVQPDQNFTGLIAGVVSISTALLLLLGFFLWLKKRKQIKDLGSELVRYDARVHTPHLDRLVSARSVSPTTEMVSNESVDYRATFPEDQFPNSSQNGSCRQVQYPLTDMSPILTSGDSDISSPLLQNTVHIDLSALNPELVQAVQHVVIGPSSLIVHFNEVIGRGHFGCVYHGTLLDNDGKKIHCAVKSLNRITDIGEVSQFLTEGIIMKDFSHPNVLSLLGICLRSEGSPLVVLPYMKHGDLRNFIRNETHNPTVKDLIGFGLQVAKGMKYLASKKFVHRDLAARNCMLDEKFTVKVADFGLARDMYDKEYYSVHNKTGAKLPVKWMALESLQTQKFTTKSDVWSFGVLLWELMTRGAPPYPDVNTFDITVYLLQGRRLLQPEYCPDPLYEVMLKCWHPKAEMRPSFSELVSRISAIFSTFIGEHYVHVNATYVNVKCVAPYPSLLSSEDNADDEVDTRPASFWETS

kinome (kinase panel) [17] = molecular target: T17, kinome (kinase panel) (Homo sapiens, UniProt Q02156); conditions: PRKCE; 1000 nM; read-out: Percent Control
T17 construct: purchased Eurofins DiscoverX

kinome (kinase panel) [18] = molecular target: T18, kinome (kinase panel) (Homo sapiens, UniProt Q9P1W9); conditions: PIM2; 1000 nM; read-out: Percent Control
T18 construct: purchased Eurofins DiscoverX
T18 sequence (Q9P1W9 whole entry): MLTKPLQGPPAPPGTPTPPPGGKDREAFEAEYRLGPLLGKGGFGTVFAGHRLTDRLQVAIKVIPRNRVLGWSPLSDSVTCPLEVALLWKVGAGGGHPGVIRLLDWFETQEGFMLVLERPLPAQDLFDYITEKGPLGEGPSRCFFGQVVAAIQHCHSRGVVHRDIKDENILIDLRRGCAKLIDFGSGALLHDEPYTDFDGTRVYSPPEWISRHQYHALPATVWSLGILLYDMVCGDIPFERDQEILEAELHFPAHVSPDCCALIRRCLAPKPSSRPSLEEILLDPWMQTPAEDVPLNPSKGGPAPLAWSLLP

kinome (kinase panel) [19] = molecular target: T19, kinome (kinase panel) (Homo sapiens, UniProt P51617); conditions: IRAK1; 1000 nM; read-out: Percent Control
T19 construct: purchased Eurofins DiscoverX

kinome (kinase panel) [20] = molecular target: T20, kinome (kinase panel) (Homo sapiens, UniProt Q16288); conditions: TRKC (NTRK3); 1000 nM; read-out: Percent Control
T20 construct: purchased Eurofins DiscoverX

kinome (kinase panel) [21] = molecular target: T21, kinome (kinase panel) (Homo sapiens, UniProt P41743); conditions: PRKCI; 1000 nM; read-out: Percent Control
T21 construct: purchased Eurofins DiscoverX

kinome (kinase panel) [22] = molecular target: T22, kinome (kinase panel) (Homo sapiens, UniProt O94806); conditions: PRKD3; 1000 nM; read-out: Percent Control
T22 construct: purchased Eurofins DiscoverX

kinome (kinase panel) [23] = molecular target: T23, kinome (kinase panel) (Homo sapiens, UniProt Q86UX6); conditions: YANK3 (STK32C); 1000 nM; read-out: Percent Control
T23 construct: purchased Eurofins DiscoverX

kinome (kinase panel) [24] = molecular target: T24, kinome (kinase panel) (Homo sapiens, UniProt Q15349); conditions: 1000 nM, read-out: Percent Control
T24 construct: purchased Eurofins DiscoverX
T24 sequence (Q15349 whole entry): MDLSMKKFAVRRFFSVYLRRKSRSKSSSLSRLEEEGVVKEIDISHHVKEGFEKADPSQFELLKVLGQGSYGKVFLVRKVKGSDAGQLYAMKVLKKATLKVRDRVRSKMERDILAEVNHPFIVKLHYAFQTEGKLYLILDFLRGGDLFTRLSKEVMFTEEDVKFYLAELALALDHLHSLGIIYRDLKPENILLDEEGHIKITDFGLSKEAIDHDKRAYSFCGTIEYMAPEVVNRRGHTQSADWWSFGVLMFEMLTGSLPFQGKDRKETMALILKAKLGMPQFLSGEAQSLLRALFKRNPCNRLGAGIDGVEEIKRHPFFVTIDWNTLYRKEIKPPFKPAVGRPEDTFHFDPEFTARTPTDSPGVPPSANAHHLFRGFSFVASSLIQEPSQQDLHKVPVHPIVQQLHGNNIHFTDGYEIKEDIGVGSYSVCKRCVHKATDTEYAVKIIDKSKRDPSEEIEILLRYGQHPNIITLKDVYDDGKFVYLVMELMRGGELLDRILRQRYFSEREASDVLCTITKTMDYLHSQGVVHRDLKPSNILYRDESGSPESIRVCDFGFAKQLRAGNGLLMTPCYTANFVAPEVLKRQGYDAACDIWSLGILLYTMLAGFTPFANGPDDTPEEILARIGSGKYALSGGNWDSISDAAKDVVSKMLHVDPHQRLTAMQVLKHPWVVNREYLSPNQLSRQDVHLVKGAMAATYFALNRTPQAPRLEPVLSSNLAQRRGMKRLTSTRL

kinome (kinase panel) [25] = molecular target: T25, kinome (kinase panel) (Homo sapiens, UniProt P00533, L861Q); conditions: […]; 1000 nM; read-out: Percent Control
T25 construct: purchased Eurofins DiscoverX
T25 sequence (P00533 25-1210 L861Q): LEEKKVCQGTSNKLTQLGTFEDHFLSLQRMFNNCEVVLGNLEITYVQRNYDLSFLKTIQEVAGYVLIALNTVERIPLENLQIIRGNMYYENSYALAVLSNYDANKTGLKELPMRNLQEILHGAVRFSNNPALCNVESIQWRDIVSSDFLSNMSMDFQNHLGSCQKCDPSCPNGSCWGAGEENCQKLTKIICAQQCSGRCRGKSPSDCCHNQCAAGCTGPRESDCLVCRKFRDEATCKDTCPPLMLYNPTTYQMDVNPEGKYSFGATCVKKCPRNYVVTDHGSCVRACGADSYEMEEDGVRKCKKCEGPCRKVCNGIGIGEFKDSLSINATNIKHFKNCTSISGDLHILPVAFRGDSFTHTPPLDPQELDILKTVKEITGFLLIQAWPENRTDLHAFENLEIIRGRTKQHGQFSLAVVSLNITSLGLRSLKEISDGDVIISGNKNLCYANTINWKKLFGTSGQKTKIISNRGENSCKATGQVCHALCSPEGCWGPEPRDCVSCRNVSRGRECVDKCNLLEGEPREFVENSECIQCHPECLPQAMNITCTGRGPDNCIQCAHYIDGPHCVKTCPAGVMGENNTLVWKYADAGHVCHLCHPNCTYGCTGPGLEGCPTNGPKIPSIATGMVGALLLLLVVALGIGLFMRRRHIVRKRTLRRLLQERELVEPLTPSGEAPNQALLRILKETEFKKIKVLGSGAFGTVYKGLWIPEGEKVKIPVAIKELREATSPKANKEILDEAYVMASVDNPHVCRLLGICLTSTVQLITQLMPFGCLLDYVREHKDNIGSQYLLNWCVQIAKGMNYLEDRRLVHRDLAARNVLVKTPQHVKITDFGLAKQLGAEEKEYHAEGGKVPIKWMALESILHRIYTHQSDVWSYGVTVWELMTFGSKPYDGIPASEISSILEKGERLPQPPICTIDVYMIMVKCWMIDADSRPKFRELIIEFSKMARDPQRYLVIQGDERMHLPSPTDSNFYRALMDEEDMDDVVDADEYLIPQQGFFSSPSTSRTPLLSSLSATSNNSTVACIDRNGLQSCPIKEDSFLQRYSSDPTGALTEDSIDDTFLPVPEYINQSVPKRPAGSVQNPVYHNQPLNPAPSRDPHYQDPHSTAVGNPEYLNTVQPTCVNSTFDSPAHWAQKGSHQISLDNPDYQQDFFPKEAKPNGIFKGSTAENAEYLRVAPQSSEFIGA

kinome (kinase panel) [26] = molecular target: T26, kinome (kinase panel) (Homo sapiens, UniProt P49674); conditions: CSNK1E; 1000 nM; read-out: Percent Control
T26 construct: purchased Eurofins DiscoverX

kinome (kinase panel) [27] = molecular target: T27, kinome (kinase panel) (Homo sapiens, UniProt P09619); conditions: PDGFRB; 1000 nM; read-out: Percent Control
T27 construct: purchased Eurofins DiscoverX

kinome (kinase panel) [28] = molecular target: T28, kinome (kinase panel) (Homo sapiens, UniProt Q15375); conditions: EPHA7; 1000 nM; read-out: Percent Control
T28 construct: purchased Eurofins DiscoverX

kinome (kinase panel) [29] = molecular target: T29, kinome (kinase panel) (Homo sapiens, UniProt P49761); conditions: CLK3; 1000 nM; read-out: Percent Control
T29 construct: purchased Eurofins DiscoverX

kinome (kinase panel) [30] = molecular target: T30, kinome (kinase panel) (Homo sapiens, UniProt Q8N4C8); conditions: MINK (Entrez MINK1); 1000 nM; read-out: Percent Control
T30 construct: purchased Eurofins DiscoverX

kinome (kinase panel) [31] = molecular target: T31, kinome (kinase panel) (Homo sapiens, UniProt Q8TD08); conditions: ERK8 (Entrez MAPK15); 1000 nM; read-out: Percent Control
T31 construct: purchased Eurofins DiscoverX

kinome (kinase panel) [32] = molecular target: T32, kinome (kinase panel) (Homo sapiens, UniProt P57058); conditions: HUNK; 1000 nM; read-out: Percent Control
T32 construct: purchased Eurofins DiscoverX

Question: Which results are given for CN(C)C(=O)c1cc2cnc(Nc3ccc(-c4csc5c(=O)cc(N6CCOCC6)oc45)cc3)nc2n1C1CCCC1 [SRX3177]?
Answer: remaining binding at 1 µM (kinome (kinase panel) [1]): 85%; remaining binding at 1 µM (kinome (kinase panel) [2]): 73%; remaining binding at 1 µM (kinome (kinase panel) [3]): 81%; remaining binding at 1 µM (kinome (kinase panel) [4]; JAK1(JH1domain-catalytic)): 96%; remaining binding at 1 µM (kinome (kinase panel) [4]; JAK1(JH2domain-pseudokinase)): 9.5%; remaining binding at 1 µM (kinome (kinase panel) [5]): 97%; remaining binding at 1 µM (kinome (kinase panel) [6]): 100%; remaining binding at 1 µM (kinome (kinase panel) [7]): 100%; remaining binding at 1 µM (kinome (kinase panel) [8]): 39%; remaining binding at 1 µM (kinome (kinase panel) [9]): 77%; remaining binding at 1 µM (kinome (kinase panel) [10]): 62%; remaining binding at 1 µM (kinome (kinase panel) [11]): 98%; remaining binding at 1 µM (kinome (kinase panel) [12]): 100%; remaining binding at 1 µM (kinome (kinase panel) [13]): 84%; remaining binding at 1 µM (kinome (kinase panel) [14]): 81%; remaining binding at 1 µM (kinome (kinase panel) [15]): 100%; remaining binding at 1 µM (kinome (kinase panel) [16]): 80%; remaining binding at 1 µM (kinome (kinase panel) [17]): 93%; remaining binding at 1 µM (kinome (kinase panel) [18]): 100%; remaining binding at 1 µM (kinome (kinase panel) [19]): 32%; remaining binding at 1 µM (kinome (kinase panel) [20]): 37%; remaining binding at 1 µM (kinome (kinase panel) [21]): 89%; remaining binding at 1 µM (kinome (kinase panel) [22]): 92%; remaining binding at 1 µM (kinome (kinase panel) [23]): 91%; remaining binding at 1 µM (kinome (kinase panel) [24]; RSK3(Kin.Dom.1-N-terminal) (RPS6KA2)): 80%; remaining binding at 1 µM (kinome (kinase panel) [24]; RSK3(Kin.Dom.2-C-terminal) (RPS6KA2)): 74%; remaining binding at 1 µM (kinome (kinase panel) [25]): 74%; remaining binding at 1 µM (kinome (kinase panel) [26]): 63%; remaining binding at 1 µM (kinome (kinase panel) [27]): 44%; remaining binding at 1 µM (kinome (kinase panel) [28]): 100%; remaining binding at 1 µM (kinome (kinase panel) [29]): 79%; remaining binding at 1 µM (kinome (kinase panel) [30]): 77%; remaining binding at 1 µM (kinome (kinase panel) [31]): 81%; remaining binding at 1 µM (kinome (kinase panel) [32]): 100%
